# Laboratory results: patent US7214668B2, “Phosphonic acid based prodrugs of PMEA and its analogues” (Metabasis Therapeutics, Inc., priority 2002, dated 2007)
# Where “and” joins values, the source holds several entries; their conditions need not be identical. Identical values can stand only once.
# Columns and labels:
# [1] = Tissue distribution of PMEA equivalents after oral tritiated Compound 4 and bis POM PMEA in rats
# Description: Total tritium counts were analyzed in solubilized samples of liver organ, kidney, plasma, urine, red blood cells, small intestine, as well as small intestine contents and feces obtained at various time points over 24 hours. Liver organ specificity was assessed by comparison of the temporal profiles of total tritium in liver organ versus kidney, small intestine, plasma, and red blood cells. Metabolite profiles in perchloric acid extracts of liver organ, kidney, small intestine, feces and urine were analyzed by HPLC.
# [2] = system: human liver microsomes; test: In vitro activation of enantiomers in human liver microsomes (glutathione by-product capture); format: in vitro ADME; conditions: 2 mg/mL human liver microsomes, glutathione adduct of by-product quantified
# Description: The two enantiomers were compared for activation in human liver microsomes.
# Human liver microsomes were purchased from In Vitro Technologies (IVT1032). […] The reactions were initiated by addition of NADPH following a 2-minute preincubation. Reactions were quenched with 60% methanol at 0, 2.5, 5, and 7.5 minutes. L-Glutamyl-L-(S-(3-oxo-3-(3-chlorophenyl)propyl)cysteinylglycine, a glutathione adduct of the by-product of prodrug activation, 3-Cl-phenyl vinyl ketone, was quantified following extraction of the reaction with 1.5 volumes of methanol. The extracted samples were centrifuged at 14,000 rpm in an Eppendorf microfuge and the supernatant analyzed by HPLC for L-Glutamyl-L-(S-(3-oxo-3-(3-chlorophenyl)propyl)cysteinylglycine content. Spiked L-Glutamyl-L-(S-(3-oxo-3-(3-chlorophenyl)propyl)cysteinylglycine (lot 20000127) standards (1–30 μM) were prepared in 2 mg/ml microsomes under reaction conditions and then quenched and processed in an identical fashion to unknown samples. For HPLC analysis, the loading mobile phase buffer (Buffer A) consisted of a 9:1 ratio (v/v) of 20 mM potassium phosphate, pH 6.2 and acetonitrile. Extract (100 uL) was injected onto a Beckman Ultrasphere ODS column (4.6×250 […], part#235329). […] The elution of L-Glutamyl-L-(S-(3-oxo-3-(3-chlorophenyl)propyl)cysteinylglycine (retention time 10.4 minutes) was monitored at 245 nm.
# [3] = system: liver microsomes isolated from rats induced with dexamethasone; test: In vitro activation of PMEA prodrug analogues to PMEA by rat liver microsomes; conditions: 1 mg/mL microsomes, 2 mM NADPH, 5 minutes, 37° C., PMEA formation
# Description: PMEA prodrug analogues were tested for activation to PMEA in reactions catalyzed by the microsomal fraction of rat liver.
# Prodrugs (25 and 250 μM) were tested for activation by liver microsomes isolated from rats induced with dexamethasone to enhance CYP3A4 activity (Human Biologics Inc., Phoenix Ariz.). Reactions were conducted in 0.1 M KH2PO4, pH 7.4, in the presence of 2 mM NADPH and liver microsomes (1 mg/mL). Reaction mixtures were incubated for 5 minutes in an Eppendorf Thermomixer 5436 (37° C., speed 6). Reactions were terminated by the addition of 1.5 volumes of methanol. The resulting extracts were clarified by centrifugation at 14,000 rpm in an Eppendorf microfuge (20 minutes). The supernatants (200 μL) were evaporated under vacuum and heat to dryness before resuspending in 80 μL of buffer A (see below) for PMEA analysis. Spiked standards of 9-[2-(phosophonomethoxy)ethyl]adenine, (PMEA, lot 980397, Metabasis Therapeutics) were prepared in the same reaction mixture and processed in an identical fashion. After resuspension, samples were analyzed by reverse phase HPLC (Altima C-18 column) with use of an ion-pairing buffer (Buffer A) consisting of 10 mM ammonium phosphate, 2.5 mM octyltriethylammonium phosphate, pH 5.5. Samples were loaded in Buffer A and eluted with a methanol gradient from 40% to 80% over 20 minutes. Detection was at 265 nm.
# [4] = PMEApp accumulation in liver organ following oral administration to normal fasted rats; format: in vivo, rat; conditions: 30 mg/kg PMEA equivalents p.o.
# Description: PMEA prodrugs were tested in vivo to identify prodrugs with suitable oral bioavailability and favorable intrahepatic activation rates.
# Following oral administration of 30-mg/kg prodrug (PMEA equivalents) to normal, fasted rats, liver organ samples were freeze-clamped at 8 hr. […] The retention time of PMEApp was 18.6 minutes.
smiles,measurement,setting,value
Nc1ncnc2c1ncn2CCOCP1(=O)OCCC(c2cccc(Cl)c2)O1 (racemic) [Compound 4],"Compound 4/bisPOM PMEA (fold difference), Kidney",[1]; 30 mg/kg PMEA equivalents p.o.,0.26 fold
same,"Compound 4/bisPOM PMEA (fold difference), Liver organ",[1]; 30 mg/kg PMEA equivalents p.o.,3.1 fold and 3.11 fold
same,"Compound 4/bisPOM PMEA (fold difference), Small Intestine",[1]; 30 mg/kg PMEA equivalents p.o.,0.04 fold
same,Fold decrease of exposure of PMEA equivalents in kidney relative to bis POM PMEA,[1]; 30 mg/kg PMEA equivalents p.o.,3.8 fold
same,Fold decrease of exposure of PMEA equivalents in small intestine relative to bis POM PMEA,[1]; 30 mg/kg PMEA equivalents p.o.,25 fold
same,Dose found as intact prodrug in feces,"[1]; after 24 hours, p.o.",~60%
same,Activation (25 μM),[2]; 25 μM,38 pmol/mg/min
same,Activation (250 μM),[2]; 250 μM,283 pmol/mg/min
same,"Activation Rate, Dex. Rat Liver Microsomes, 25 μM",[3]; 25 μM prodrug,6.2 nmol/min/mg
same,"Activation Rate, Dex. Rat Liver Microsomes, 250 μM",[3]; 250 μM prodrug,10.9 nmol/min/mg
same,"Rats, PMEApp levels in liver organ @ 8 hr., 30 mg/kg, p.o.",[4],6.6 nmol/g
